Columns and labels:
[1] = molecular target: T1, TSPO (Rattus norvegicus, UniProt P16257); assay: Ex vivo biodistribution of [^11C]CB184 in control and HSE rats
T1 construct: from tissue; host or cells: Brain regions and peripheral organs of male Wistar rats, measured in vivo by PET and ex vivo by gamma counting
Experimental: PET scans were performed using a microPET Focus 220 camera (Siemens Medical Solutions Inc., Malvern, PA) on either day 6 or day 7 after inoculation with HSV-1 [18], depending on the severity of clinical symptoms. The rats were anaesthetized with 5 % isoflurane mixed with medical air at a flow rate of […]. After induction, anaesthesia was maintained with 1.5 – 2 % of isoflurane. The anaesthetized rats were positioned in the camera in a supine position with the head in the field of view. The PET tracer [^11C]CB184 was manually injected via the penile vein, and at the same time a dynamic 60-min scan was started. […] For 30 min the animals were kept under anaesthesia on the operation table after injection of the PET tracer into the penile vein, and were then placed in the scanner for a 30-min dynamic scan. A transmission scan was obtained in all rats using a ^57Co point source for attenuation and scatter correction. In the pretreated group, 5 mg/kg unlabelled PK11195 (Sigma-Aldrich, St. Louis, MO) in dimethyl sulphoxide (DMSO) at a concentration of 10 mg/ml was administered via a tail vein 5 min before injection of the PET tracer.
The brain and peripheral organs were excised and dissected, and blood was centrifuged to collect a plasma sample. Tissues were weighed and radioactivity was measured in a gamma counter (LKB Wallac, Turku, Finland). Tracer uptake in each region was corrected for the injected tracer dose and body weight and expressed as standardized uptake value (SUV), which was defined as: radioactivity (MBq/cm^3)/[injected dose (MBq)/body weight (g)].

[2] = tested on: TSPO; conditions: normal mice; cited from earlier work
[3] = HSE rats pretreated with 5 mg/kg PK11195, approximately 75 min after injection
[4] = HSE rats, approximately 75 min after injection
[5] = control (PBS) rats pretreated with 5 mg/kg PK11195, approximately 75 min after injection
[6] = control rats, approximately 75 min after injection

CCCN(CCC)C(=O)Cc1c(-c2ccc(O[11CH3])cc2)nc2c(Cl)cc(Cl)cn12 [[^11C]CB184]
SUV ex vivo, Adrenals [1, 3]: 8.14 ± 7.09 SUV | SUV ex vivo, Bone [1, 3]: 0.39 ± 0.24 SUV | SUV ex vivo, Colon [1, 3]: 0.49 ± 0.36 SUV | SUV ex vivo, Fat [1, 3]: 0.72 ± 0.49 SUV | SUV ex vivo, Heart [1, 3]: 0.77 ± 0.53 SUV | SUV ex vivo, Hippocampus [1, 3]: 0.09 ± 0.05 SUV | SUV ex vivo, Ileum [1, 3]: 2.74 ± 1.77 SUV | SUV ex vivo, Kidney [1, 3]: 1.12 ± 0.75 SUV | SUV ex vivo, Liver [1, 3]: 10.71 ± 9.25 SUV | SUV ex vivo, Lung [1, 3]: 1.62 ± 0.98 SUV | SUV ex vivo, Medulla [1, 3]: 0.13 ± 0.06 SUV | SUV ex vivo, Pancreas [1, 3]: 0.62 ± 0.37 SUV | SUV ex vivo, Parietal/temporal/occipital cortex [1, 3]: 0.10 ± 0.05 SUV | SUV ex vivo, Plasma [1, 3]: 0.19 ± 0.04 SUV | SUV ex vivo, Pons [1, 3]: 0.12 ± 0.10 SUV | SUV ex vivo, Red blood cells [1, 3]: 0.11 ± 0.07 SUV | SUV ex vivo, Spleen [1, 3]: 0.71 ± 0.55 SUV | SUV ex vivo, Stomach [1, 3]: 0.82 ± 0.60 SUV | SUV ex vivo, Striatum [1, 3]: 0.09 ± 0.06 SUV | SUV ex vivo, Submandibularis [1, 3]: 0.79 ± 0.56 SUV | SUV ex vivo, Testis [1, 3]: 0.29 ± 0.21 SUV | SUV ex vivo, Thymus [1, 3]: 0.74 ± 0.46 SUV | SUV ex vivo, Whole brain [1, 3]: 0.08 ± 0.08 SUV | SUV ex vivo, Adrenals [1, 4]: 13.86 ± 4.42 SUV | SUV ex vivo, Amygdala/piriform cortex [1, 4]: 0.52 ± 0.21 SUV | SUV ex vivo, Bone [1, 4]: 0.98 ± 0.14 SUV | SUV ex vivo, Colon [1, 4]: 3.29 ± 0.81 SUV | SUV ex vivo, Fat [1, 4]: 0.57 ± 0.39 SUV | SUV ex vivo, Heart [1, 4]: 23.69 ± 2.71 SUV | SUV ex vivo, Hippocampus [1, 4]: 0.55 ± 0.21 SUV | SUV ex vivo, Ileum [1, 4]: 6.20 ± 2.67 SUV | SUV ex vivo, Kidney [1, 4]: 13.17 ± 2.25 SUV | SUV ex vivo, Liver [1, 4]: 7.97 ± 1.73 SUV | SUV ex vivo, Lung [1, 4]: 22.53 ± 2.41 SUV | SUV ex vivo, Medulla [1, 4]: 1.51 ± 0.57 SUV | SUV ex vivo, Olfactory bulb [1, 4]: 1.52 ± 0.22 SUV | SUV ex vivo, Pancreas [1, 4]: 4.23 ± 0.76 SUV | SUV ex vivo, Parietal/temporal/occipital cortex [1, 4]: 0.41 ± 0.14 SUV | SUV ex vivo, Plasma [1, 4]: 0.28 ± 0.24 SUV | SUV ex vivo, Pons [1, 4]: 1.26 ± 0.52 SUV | SUV ex vivo, Red blood cells [1, 4]: 0.13 ± 0.01 SUV | SUV ex vivo, Spleen [1, 4]: 11.76 ± 1.42 SUV | SUV ex vivo, Stomach [1, 4]: 5.88 ± 1.87 SUV | SUV ex vivo, Striatum [1, 4]: 0.45 ± 0.15 SUV | SUV ex vivo, Submandibularis [1, 4]: 4.89 ± 0.75 SUV | SUV ex vivo, Testis [1, 4]: 0.88 ± 0.12 SUV | SUV ex vivo, Thymus [1, 4]: 3.23 ± 0.33 SUV | SUV ex vivo, Whole brain [1, 4]: 0.99 ± 0.21 SUV | SUV ex vivo, Adrenals [1, 5]: 7.72 ± 5.20 SUV | SUV ex vivo, Bone [1, 5]: 0.31 ± 0.19 SUV | SUV ex vivo, Colon [1, 5]: 0.42 ± 0.24 SUV | SUV ex vivo, Fat [1, 5]: 0.48 ± 0.18 SUV | SUV ex vivo, Heart [1, 5]: 0.68 ± 0.40 SUV | SUV ex vivo, Hippocampus [1, 5]: 0.12 ± 0.08 SUV | SUV ex vivo, Ileum [1, 5]: 2.31 ± 1.15 SUV | SUV ex vivo, Kidney [1, 5]: 0.72 ± 0.44 SUV | SUV ex vivo, Liver [1, 5]: 11.28 ± 5.43 SUV | SUV ex vivo, Lung [1, 5]: 0.95 ± 0.57 SUV | SUV ex vivo, Medulla [1, 5]: 0.12 ± 0.07 SUV | SUV ex vivo, Pancreas [1, 5]: 0.57 ± 0.34 SUV | SUV ex vivo, Parietal/temporal/occipital cortex [1, 5]: 0.10 ± 0.06 SUV | SUV ex vivo, Plasma [1, 5]: 0.27 ± 0.15 SUV | SUV ex vivo, Pons [1, 5]: 0.12 ± 0.08 SUV | SUV ex vivo, Red blood cells [1, 5]: 0.11 ± 0.05 SUV | SUV ex vivo, Spleen [1, 5]: 0.70 ± 0.47 SUV | SUV ex vivo, Stomach [1, 5]: 0.70 ± 0.46 SUV | SUV ex vivo, Striatum [1, 5]: 0.11 ± 0.07 SUV | SUV ex vivo, Submandibularis [1, 5]: 0.70 ± 0.46 SUV | SUV ex vivo, Testis [1, 5]: 0.30 ± 0.24 SUV | SUV ex vivo, Thymus [1, 5]: 0.72 ± 0.44 SUV | SUV ex vivo, Whole brain [1, 5]: 0.15 ± 0.08 SUV | SUV ex vivo, Adrenals [1, 6]: 14.84 ± 5.45 SUV | SUV ex vivo, Bone [1, 6]: 1.00 ± 0.26 SUV | SUV ex vivo, Colon [1, 6]: 3.38 ± 0.97 SUV | SUV ex vivo, Fat [1, 6]: 0.43 ± 0.21 SUV | SUV ex vivo, Heart [1, 6]: 22.81 ± 2.80 SUV | SUV ex vivo, Hippocampus [1, 6]: 0.39 ± 0.18 SUV | SUV ex vivo, Ileum [1, 6]: 6.41 ± 3.07 SUV | SUV ex vivo, Kidney [1, 6]: 12.52 ± 2.22 SUV | SUV ex vivo, Liver [1, 6]: 7.57 ± 1.64 SUV | SUV ex vivo, Lung [1, 6]: 18.39 ± 2.20 SUV | SUV ex vivo, Medulla [1, 6]: 0.59 ± 0.14 SUV | SUV ex vivo, Pancreas [1, 6]: 3.55 ± 0.52 SUV | SUV ex vivo, Parietal/temporal/occipital cortex [1, 6]: 0.32 ± 0.06 SUV | SUV ex vivo, Plasma [1, 6]: 0.18 ± 0.08 SUV | SUV ex vivo, Pons [1, 6]: 0.63 ± 0.08 SUV | SUV ex vivo, Red blood cells [1, 6]: 0.19 ± 0.18 SUV | SUV ex vivo, Spleen [1, 6]: 13.23 ± 2.64 SUV | SUV ex vivo, Stomach [1, 6]: 5.04 ± 0.82 SUV | SUV ex vivo, Striatum [1, 6]: 0.28 ± 0.07 SUV | SUV ex vivo, Submandibularis [1, 6]: 4.28 ± 1.02 SUV | SUV ex vivo, Testis [1, 6]: 0.98 ± 0.11 SUV | SUV ex vivo, Thymus [1, 6]: 3.36 ± 0.58 SUV | SUV ex vivo, Whole brain [1, 6]: 0.66 ± 0.16 SUV | SUV ex vivo, adrenal glands (mean ± SD) ([1]; pretreated with unlabelled PK11195, control and HSE groups together): 7.93 ± 5.87 SUV | Uptake in TSPO-rich regions (cerebellum and olfactory bulb) as compared with (R)-[^11C]PK11195 [2]: higher uptake

Reference: paper PMC4424274, “Evaluation of [^11C]CB184 for imaging and quantification of TSPO overexpression in a rat model of herpes encephalitis” (European Journal of Nuclear Medicine and Molecular Imaging, 2015)
